Measurements: article PMC11173382, “In Vitro Investigations into the Potential Drug Interactions of Pseudoginsenoside DQ Mediated by Cytochrome P450 and Human Drug Transporters” (Molecules, 2024)

Key:
hOATP1B1 = target: T1, hOATP1B1 (Homo sapiens, UniProt Q9Y6L6); assay: Substrates uptake assay, HEK293A-OATP1B1 cells (3H-ES); assay type: in vitro ADME; conditions: HEK293A-OATP1B1; 3H-ES 0.1 µM; 2 min
T1 sequence (Q9Y6L6 1-691): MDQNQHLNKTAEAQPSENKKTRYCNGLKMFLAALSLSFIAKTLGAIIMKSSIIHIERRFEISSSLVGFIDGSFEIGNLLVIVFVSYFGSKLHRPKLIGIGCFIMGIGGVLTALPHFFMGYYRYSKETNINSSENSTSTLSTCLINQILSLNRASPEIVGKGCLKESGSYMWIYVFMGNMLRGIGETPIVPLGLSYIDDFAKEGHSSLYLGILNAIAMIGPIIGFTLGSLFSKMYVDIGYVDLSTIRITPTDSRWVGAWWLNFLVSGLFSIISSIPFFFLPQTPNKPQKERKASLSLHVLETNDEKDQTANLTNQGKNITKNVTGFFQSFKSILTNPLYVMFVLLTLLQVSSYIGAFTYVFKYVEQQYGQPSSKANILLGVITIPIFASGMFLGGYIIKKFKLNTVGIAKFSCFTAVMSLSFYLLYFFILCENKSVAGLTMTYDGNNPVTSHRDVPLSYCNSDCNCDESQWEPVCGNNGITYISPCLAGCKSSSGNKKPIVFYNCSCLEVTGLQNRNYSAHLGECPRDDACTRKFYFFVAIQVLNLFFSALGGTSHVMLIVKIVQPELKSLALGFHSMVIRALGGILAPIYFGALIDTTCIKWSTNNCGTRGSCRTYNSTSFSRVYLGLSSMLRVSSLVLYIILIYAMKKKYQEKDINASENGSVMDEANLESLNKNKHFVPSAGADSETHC

hOCT2 = target: T2, hOCT2 (Homo sapiens, UniProt O15244); assay: Substrates uptake assay, S2-OCT2 cells (14C-TEA); assay type: in vitro ADME; conditions: for Transport activity of OCT2 (main text: percentage inhibition): negative control = 100%
T2 construct: host or cells: S2-OCT2
T2 sequence (O15244 1-555): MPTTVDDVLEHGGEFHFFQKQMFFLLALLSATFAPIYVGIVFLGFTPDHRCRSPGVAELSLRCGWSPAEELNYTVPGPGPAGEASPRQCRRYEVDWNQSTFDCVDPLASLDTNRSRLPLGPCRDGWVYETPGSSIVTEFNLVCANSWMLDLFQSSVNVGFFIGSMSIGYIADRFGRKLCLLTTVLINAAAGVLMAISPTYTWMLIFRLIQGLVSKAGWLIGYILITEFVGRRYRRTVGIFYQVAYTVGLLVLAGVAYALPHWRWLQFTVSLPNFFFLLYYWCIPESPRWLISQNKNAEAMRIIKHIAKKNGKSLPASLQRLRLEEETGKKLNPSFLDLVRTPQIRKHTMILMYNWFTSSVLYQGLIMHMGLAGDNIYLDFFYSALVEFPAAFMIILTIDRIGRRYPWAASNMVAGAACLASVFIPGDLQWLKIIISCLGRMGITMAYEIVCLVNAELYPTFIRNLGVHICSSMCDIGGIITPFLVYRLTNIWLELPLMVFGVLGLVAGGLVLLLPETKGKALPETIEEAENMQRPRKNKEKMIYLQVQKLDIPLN
From the text: Drug transporters mediate the cellular uptake and efflux of their substrates. Therefore, cell lines overexpressing a drug transporter can be utilized to investigate inhibitors of the transporter by assessing changes in substrate uptake. For each drug transporter, we selected a well-characterized inhibitor as the positive control. Radiolabeled substrates were used to indicate the decrease in transport efficiency when the drug transporters were inhibited by PDQ or the control inhibitors.
The concentrations of the control drugs and the substrates were stated in the assay details. Working solutions of the control inhibitors, the radiolabeled substrates, and each dose of PDQ were prepared at 200 times (200×) more concentrated solutions with DMSO for further dilution.
Transporter-overexpressed cell lines. Human organic anion transporter-overexpressed cell lines MDCKII-OAT1 and S2-OAT3, human organic anion transport polypeptide-overexpressed cell lines HEK293A-OATP1B1 and HEK293A-OATP1B3, human organic cation transporter 2-overexpressed cell line S2-OCT2, and human multi-drug resistance protein MDR1 (or P-gp)-overexpressed cell line MDCKII-MDR1 were gifts from Japan Fuji Biomedical Co., Ltd. (Fuji, Shizuoka Prefecture, Japan). Breast cancer resistance protein-overexpressed vesicles (sf9-BCRP vesicle) were purchased from GenoMembrane Co., Ltd. (Yokohama, Kanagawa, Japan).
Substrates uptake assay. In this assay, we studied the inhibition of PDQ against transporters OAT1, OAT3, OCT2, OATP1B1 and OATP1B3 with MDCKII-OAT1, S2-OAT3, S2-OCT2, HEK293A-OATP1B1and HEK293A-OATP1B3 cells, respectively. The radiolabeled substrates for OAT1, OAT3, OATP1B1, OATP1B3 and OCT2 were […], respectively (Table 5). Probenecid ([…]) was the positive control inhibitor of OAT1 and OAT3, while rifampicin ([…]) served as the control drug of OATP1B1 and OATP1B3. For OCT2, we used […] cimetidine to compare with the inhibitory effect of PDQ. Two times (2×) more concentrated working solutions of the drugs and the substrate were prepared with Dulbecco’s phosphate-buffered saline (DPBS, Gibco, Grand Island, NY, USA.). Then, an equal volume of 2× drug solution and 2× radiolabeled substrate solution were mixed as the working mix. All reagents were pre-warmed to 37 °C.
The cells were digested with 0.05% trypsin/EDTA. The density of the single-cell suspension was adjusted to 2.0 × 10^5 cells/mL for S2 cells and to 1.5 × 10^5 cells/mL for MDCK II and HEK293A cells. The cell suspension was then added to the reservoirs of the 24-well plate for culture until full confluency. The medium in the wells was removed, and the wells were washed with DPBS. Then, the plate was incubated for 10 min with pre-warmed DPBS in the wells. After removing DPBS, […] of working mix was added to each well to initiate the substrate uptake process. The reaction time was 5 min for S2-OCT2 cells, while the other four types of cells were incubated with the reaction mix for 2 min. Cold DPBS was used to terminate the substrate transportation. To each well, […] NaOH ([…]) was added to lyse the cells. Then, […] cell lysate was transferred to the counting vials, and 3 mL scintillation cocktail (Aquasol-2, PerkinElmer, Waltham, MA, USA) was added. […] Each sample was replicated three times (N = 3).
In = [100 × (U − U0)/(Uc − U0)]%(3)
The results were expressed as mean ± standard deviation (SD) and analyzed with GraphPad Prism 8.0 software (CA, USA). The IC50 of PDQ was curve-fitted with the FORECAST function. Statistical significance was calculated using a two-tailed test, and a p value < 0.05 was considered as significant.

CC(C)(O)[C@@H]1CC[C@@](C)([C@H]2CC[C@]3(C)[C@@H]2[C@H](O)C[C@@H]2[C@@]4(C)CC[C@H](O)C(C)(C)[C@@H]4CC[C@]23C)O1 [PDQ, (20S,24S)-dammar-20,24-epoxy-3β, 12β, 25-triol]
IC50 (hOATP1B1): 13.1 µM
DPM (14C-TEA uptake by OCT2) (hOCT2; inhibitor 0.1 μM): 994.3±112.3 DPM
Transport activity of OCT2 (main text: percentage inhibition) (hOCT2; inhibitor 0.1 μM): 101.6±11.5%
DPM (14C-TEA uptake by OCT2) (hOCT2; inhibitor 0.3 μM): 741.3±35.0 DPM
Transport activity of OCT2 (main text: percentage inhibition) (hOCT2; inhibitor 0.3 μM): 75.8±3.6%
DPM (14C-TEA uptake by OCT2) (hOCT2; inhibitor 1 μM): 712.3±115.3 DPM
Transport activity of OCT2 (main text: percentage inhibition) (hOCT2; inhibitor 1 μM): 72.8±11.8%
DPM (14C-TEA uptake by OCT2) (hOCT2; inhibitor 3 μM): 661.7±93.5 DPM
Transport activity of OCT2 (main text: percentage inhibition) (hOCT2; inhibitor 3 μM): 67.6±9.6%
DPM (14C-TEA uptake by OCT2) (hOCT2; inhibitor 10 μM): 612.0±28.7 DPM
Transport activity of OCT2 (main text: percentage inhibition) (hOCT2; inhibitor 10 μM): 62.6±2.9%
DPM (14C-TEA uptake by OCT2) (hOCT2; inhibitor 30 μM): 578.0±29.5 DPM
